Reference: patent US12171776B2, “Methods for treatment and prophylaxis of HIV and AIDS” (Merck Sharp & Dohme LLC, priority 2016, dated 2024)
Where two headings read alike, the source gives them in different places. Values belong to the compound of their own block, whether it stands above or below them.

Experiments:
SIVmac251 = assay: Once-weekly efficacy in an SIV infected rhesus monkey model of HIV-infection; type: in vivo; details: SIV-infected monkeys
Protocol: Once-Weekly Efficacy in an SIV Infected Rhesus Monkey Model of HIV-Infection.
Oral efficacy studies were conducted at New Iberia Research Center (NIRC), Lafayette, Louisiana Following treatment with BAYTRIL® (5 mg/kg, IM, SID) for 5 days, 20 monkeys were inoculated intravenously with SIVmac251. After 3 days, venous blood was collected every 2-5 days (2× per week) for viral load testing and monitored to stable viremia (wherein 3 consecutive samples were within 3-fold of each other following acute viremia peak). Plasma SIV viral RNA levels were determined using a branched DNA technique at Siemens Diagnostics, Berkeley, California.
Following determination of stable viremia, SIV-infected monkeys were randomized by age, weight, and viral load (n=3 per group). A 2-arm adaptive design was employed in which results from Arm 1 informed the doses for Arm 2. In Arm 1, animals received two once-weekly doses of vehicle, 1.3 mg/kg EFdA, or 13 mg/kg EFdA administered via oral gavage. In Arm 2, animals received 3.9 mg/kg or 18.2 mg/kg EFdA once-weekly or 0.19 mg/kg EFdA once daily for two weeks. Blood (4 ml) was drawn for viral load determinations during the treatment period on days −2, 0 (dosing day), 1, 2, 3, 5, 7 (dosing day), 8, 9, 10, 12, and 14, and then two times per week for 3 weeks during the washout period. In addition, blood (1 ml) was drawn on days 0 (2 hrs post dose), 1 (24 hr post dose), 7 (2 hrs post dose), and 8 (24 hrs post dose) for EFdA pharmacokinetic assessment.
SIV RNA for genotyping was isolated from 140 μl plasma using the QIAamp Viral RNA Mini kit (Cat #52904/52906). The reverse transcriptase region of SIVmac251 was reverse transcribed and amplified using SuperScript III RT/Platinum polymerase, primers S251RTF1 ([…] [2732-2751]) and S251RTR1 ([…] [4206-4225]) and 8 μl template RNA in 20 μl reactions. A nested PCR reaction was carried out using 3.5 μl of the product from the first reaction with TaKaRa LA Taq and primers S251RTF2 ([…] [2750-2769]) and S251RTR2 ([…] [4169-4188]) in 50 μl reactions. After verifying size of ˜1.5 kb by gel electrophoresis, PCR products were purified using ExoSAP-IT (Affymetrix; cat #78201) and adjusted to 15 ng/ml. PCR products (10 μl) were mixed with 5 μl 5 μM sequencing primers S251RTS5 ([…] [2760-2779]), s251RTS6 ([…] [3266-3285]), or S251RTS7 ([…] [3755-3774]). DNA sequencing was carried out at Genewiz (115 Corporate Blvd, South Plainfield, NJ 07080).

[1] = Phase I single rising dose pharmacokinetics of oral EFdA suspension in healthy adults; type: in vivo, human
Protocol: (§1) Pharmacokinetics of EFdA Following Administration of Oral Doses in Healthy Humans.
(§2) The pharmacokinetics of EFdA were evaluated in Phase I single and multiple rising dose studies. In the single dose study, single oral doses of the oral suspension of EFdA from 5 to 400 mg were administered to three alternating panels of 8 healthy adult subjects. Within each panel, subjects were administered single doses of EFdA (n=6) or matching placebo (n=2) in a blinded fashion in up to 3 treatment periods. Panel A received 15 mg and 200 mg. Panel B received 30 mg, 400 mg, and 30 mg with food. Panel C received 100 mg and 5 mg. In the multiple rising dose study, multiple doses of EFdA oral capsules were administered to three panels of 8 healthy adult subjects. Within each panel, subjects were administered three once weekly doses of EFdA (n=6) or matching placebo (n=2) on Days 1, 8, and 15. Panel A received 10 mg. Panel B received 30 mg, and Panel C received 100 mg.

[2] = Phase I multiple rising dose pharmacokinetics, three once weekly oral doses of EFdA capsules in healthy adults; type: in vivo, human; details: for plasma concentration (below LLQ): 10 mg dose, all subjects; for Cmax / Tmax / half-life / AUC(0-t) / AUC0-168 hr: healthy fasted subjects; for Cmax / half-life / AUC(0-t) / AUC0-168 hr: geometric mean (%GCV); for Cmax accumulation ratio Week 3/Week 1: geometric mean (min, max); for Tmax / half-life / AUC(0-t): human; for Tmax: po, median (min, max); for AUC(0-t): read-out: AUC0-168 hr
Protocol: as §1, §2

HIV-1 = tested on: HIV-1
Source text: The single dose monotherapy efficacy of EFDA is currently being evaluated in HIV-1 patients naïve to anti-retroviral treatment.

SIV = details: PBMCs isolated from uninfected monkeys 24 hr after drug administration; Stoddart et al. 2015; cited from earlier work
[3] = in vitro; lymphoid derived cell lines and peripheral blood mononuclear cells; Stoddart et al. 2015; cited from earlier work
[4] = EFdA in plasma, 30 mg oral once weekly, Week 3
[5] = EFdA in plasma, 100 mg oral once weekly, Week 3
[6] = single 10 mg dose, HIV-1 patients, plasma HIV-1 RNA, N=6
[7] = single 10 mg dose, adjusted by pooled historical placebo
[8] = EFdA-TP in PBMCs, EFdA 10 mg oral once weekly, Week 1
[9] = EFdA-TP in PBMCs, EFdA 30 mg oral once weekly, Week 1
[10] = EFdA-TP in PBMCs, EFdA 30 mg oral once weekly, Week 3
[11] = EFdA-TP in PBMCs, EFdA 100 mg oral once weekly, Week 1
[12] = EFdA-TP in PBMCs, EFdA 100 mg oral once weekly, Week 3
[13] = PBMCs, following multiple doses of 30 mg and 100 mg

SMILES: C#C[C@]1(CO)O[C@@H](n2cnc3c(N)nc(F)nc32)C[C@@H]1O [EFdA, 4′-Ethynyl-2-fluoro-2′-deoxyadenosine]
VL suppression maintained (SIVmac251; 3.9 mg/kg QW oral, from Day 7 to Day 14): 7 days
VL drop (SIVmac251; 3.9 to 18.2 mg/kg QW oral): close to maximal
VL during the wash-out period (SIVmac251; after cessation of dosing): dose-dependent VL rebound
control of viremia (SIVmac251; once-weekly oral versus once-daily treatment): can control viremia with once-weekly oral administration as well as once-daily treatment
effect of food on intracellular pharmacokinetics ([1]; 30 mg with food, high-fat meal, single dose): largely unaffected by a high-fat meal
plasma exposure versus dose ([1]; EFdA in plasma, between 5 and 400 mg single oral dose): approximately dose-proportional
median Tmax ([1]; EFdA in plasma, single oral doses 5 to 400 mg, healthy adults): 0.5 h
reduction of plasma Cmax in rapid initial phase ([1]; EFdA in plasma, within the first 6-12 hours, single oral dose): approximately 10 fold
half-life ([1]; human, EFdA in plasma, single oral doses 5 to 400 mg, healthy adults, read-out: apparent terminal half-life, slow terminal phase): 50 to 60 h
plasma concentration (below LLQ) ([2]; at 48 hr post-dose and later on week 1): < 3.41 nM
plasma concentration (below LLQ) ([2]; at 96 hr post-dose or later in week 3): < 3.41 nM
Cmax ([2]; EFdA in plasma, 10 mg oral once weekly, Week 1, read-out: Cmax): 193 nM
Cmax ([2]; EFdA in plasma, 10 mg oral once weekly, Week 3, read-out: Cmax): 241 nM
Cmax accumulation ratio Week 3/Week 1 ([2]; EFdA in plasma, 10 mg oral once weekly): 1.25 (0.70, 1.66)
Cmax ([2]; EFdA in plasma, 30 mg oral once weekly, Week 1, read-out: Cmax): 647 nM
Cmax ([2]; EFdA in plasma, 30 mg oral once weekly, Week 3, read-out: Cmax): 637 nM
Cmax accumulation ratio Week 3/Week 1 ([2]; EFdA in plasma, 30 mg oral once weekly): 0.98 (0.73, 1.44)
Cmax ([2]; EFdA in plasma, 100 mg oral once weekly, Week 1, read-out: Cmax): 1470 nM
Cmax ([2]; EFdA in plasma, 100 mg oral once weekly, Week 3, read-out: Cmax): 1850 nM
Cmax accumulation ratio Week 3/Week 1 ([2]; EFdA in plasma, 100 mg oral once weekly): 1.26 (0.26, 3.59)
exposure versus dose ([2]; EFdA in plasma, 10, 30, 100 mg once weekly): generally dose-proportional
Tmax ([2]; plasma, 10 mg, EFdA in plasma, 10 mg oral once weekly, Week 1): 1 h
Tmax ([2]; plasma, 10 mg, EFdA in plasma, 10 mg oral once weekly, Week 3): 1 h
Tmax ([2]; plasma, 30 mg, EFdA in plasma, 30 mg oral once weekly, Week 1): 1 h
Tmax ([2]; plasma, 30 mg, EFdA in plasma, 30 mg oral once weekly, Week 3): 1 h
Tmax ([2]; plasma, 100 mg, EFdA in plasma, 100 mg oral once weekly, Week 1): 2 h
Tmax ([2]; plasma, 100 mg, EFdA in plasma, 100 mg oral once weekly, Week 3): 1 h
half-life [2, 4]: 74.1 h
AUC(0-t) [2, 4]: 3.97 µM·h
half-life [2, 5]: 87.1 h
AUC(0-t) [2, 5]: 12 µM·h
accumulation of EFdA in plasma ([2]; plasma, multiple once weekly doses): little to no accumulation
Change from Baseline in Viral Load, Max (HIV-1; [6]): −1.31 log10 copies/mL
Change from Baseline in Viral Load, Median (HIV-1; [6]): −1.63 log10 copies/mL
Change from Baseline in Viral Load, Min (HIV-1; [6]): −1.97 log10 copies/mL
Change from Baseline in Viral Load, LS mean (95% CI) (HIV-1; single 10 mg dose, HIV-1 patients, plasma HIV-1 RNA, N=6, LDA model): −1.67 (−1.87, −1.47) log10 copies/mL
PP = Posterior Probability of true mean difference in plasma HIV-1 RNA reduction from baseline between EFDA and placebo at least 0.5 log10 copies/mL (HIV-1; [7]): >99.9%
Placebo Corrected Change from Baseline in Viral Load, Posterior mean (HIV-1; [7]): −1.64 log10 copies/mL
mean (95% CI) placebo adjusted VL reduction (HIV-1; single 10 mg dose, at 168 hours post-dose, HIV-1 patients): 1.67 log 10
recrudescence of viral load (HIV-1; single 10 mg dose, through Day 10): no evidence of recrudescence
mean VL reduction (HIV-1; single 10 mg dose, through Day 10, HIV-1 patients): 1.78 log 10
tolerability (HIV-1; single 10-mg dose, HIV-1 patients, limited number of mild/moderate adverse experiences): generally well tolerated
susceptibility of PBMCs to SIV infection (SIV): refractory to SIV infection

exposure versus dose ([2]; EFdA-TP in PBMC, EFdA 10, 30, 100 mg once weekly): generally dose-proportional
AUC0-168 hr [2, 8]: 341 (21.2) hr * pmo1/10^6 cells
Cmax [2, 8]: 3.78 (15.3) pmo1/10^6 cells
AUC0-168 hr [2, 9]: 1160 (41.5) hr * pmo1/10^6 cells
Cmax [2, 9]: 13.2 (51.3) pmo1/10^6 cells
AUC0-168 hr [2, 10]: 1570 (12.3) hr * pmo1/10^6 cells
Cmax [2, 10]: 19.6 (13.7) pmo1/10^6 cells
AUC0-168 hr [2, 11]: 3020 (31.3) hr * pmo1/10^6 cells
Cmax [2, 11]: 27.9 (21.2) pmo1/10^6 cells
AUC0-168 hr [2, 12]: 4580 (17.6) hr * pmo1/10^6 cells
Cmax [2, 12]: 43.0 (16.7) pmo1/10^6 cells
accumulation of EFdA-TP AUC0-168hr and Cmax [2, 13]: modest degree of accumulation
accumulation of EFdA-TP C168hr [2, 13]: little to no accumulation
SMILES: C#C[C@]1(COP(=O)(O)OP(=O)(O)OP(=O)(O)O)O[C@@H](n2cnc3c(N)nc(F)nc32)C[C@@H]1O [EFdA-TP, 4′-ethynyl-2-fluoro-2′-deoxyadenosine triphosphate]
intracellular half-life [3]: exceeds 72 hrs
